Measured values from US5166154A, “Imidazo[1,2-a]piperazines” (Boehringer Ingelheim Pharmaceuticals, Inc., priority 1991, dated 1992).
Read-outs that look alike come from different tables or passages of the source.

Target: T1, Human sputum elastase (HSE) (Homo sapiens, UniProt P08246)
T1 construct: purchased Elastin Products Co., Pacific, Mo; host or cells: human sputum
T1 sequence (P08246 30-247 limits assumed): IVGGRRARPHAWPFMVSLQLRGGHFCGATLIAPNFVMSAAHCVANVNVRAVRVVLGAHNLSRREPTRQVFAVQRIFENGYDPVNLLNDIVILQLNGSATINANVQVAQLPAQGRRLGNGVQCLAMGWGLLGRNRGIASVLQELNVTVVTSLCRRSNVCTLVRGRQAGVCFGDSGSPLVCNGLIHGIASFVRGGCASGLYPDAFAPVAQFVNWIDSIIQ
Test: In vitro elastase inhibition, hydrolysis of MeO-Suc-Ala-Ala-Pro-Val-pNA (release of pNA, 405 nm)
Assay type: biochemical
Conditions: 5 ug/mL, 0.5 mM substrate, pH 7.5, 15 min pre-incubation
From the text: The method of K. Nakajima et al., Journal of Biological Chemistry, 254: 4027-4032 (1979) was adapted to a microtiter format. The in vitro assay is based upon the hydrolysis of the commercially available (Sigma Chemical Company, St. Louis, Mo.) substrate methoxy O-succinyl-L-alanyl-L-alanyl-L-prolyl-L-valine para-nitroanilide (MeO-Suc-Ala-Ala-Pro-Val-pNA) and the release of para-nitroanilide (pNA), which absorbs at 405 nm.
a. Human sputum elastase (HSE) (Elastin Products Co., Pacific, Mo.) dissolved in 1 mg/mL in 0.05M sodium chloride and frozen (50 μL aliquots) at -20° C. until used.
b. Stock solution of MeO-succinyl-L-Alanyl-L-Alanyl-Pro-Val-pNA dissolved at 15 mM in dimethylsulfoxide (DMSO) and frozen (4 mL aliquots) at -20° C. until used.
c. Assay buffer: 0.1M Tris buffer, pH 7.5 containing 0.5M sodium chloride.
Screening is performed in microtiter plates, using 0.5 mM substrate and monitored on a Microtiter Reader. Enzyme activity (+/- test compound) is determined as the rate of pNA release (linear regression analysis of slope). Inhibitory activity of the test compound is calculated relative to the uninhibited enzyme control, as follows: [formula]
A frozen aliquot of HSE is thawed and diluted with assay buffer to a stock concentration of 0.02 mg/mL (30×assay concentration). A frozen aliquot of the substrate stock solution is thawed and diluted to 0.5 mM with the assay buffer (final DMSO concentration is […]). 10 μl of the test compound stock solution (or assay buffer) and 10 μl of the HSE stock solutions are pipetted into each microtiter well, in duplicate. The plate is mixed well, and pre-incubated at room temperature for 15 minutes. A 300 μl substrate solution is then added to each well and the OD405 is followed for approximately 30 minutes.
Further, it is known to those skilled in the art that the biological activities of pharmaceutical agents may be diminished in vitro when human serum albumin (HSA) is added. This is due to the probable binding of compounds to protein. In the case of the present invention, however, the compounds of the present invention are just as active in vitro without or with 0.5% HSA and thus would be expected not to bind to plasma in an in vivo situation or in a diagnostic setting.

[1] = 0% HSA (human serum albumin), read-out: % INHIBITION (5 ug/mL), 0% HSA
[2] = 0.5% HSA (human serum albumin), read-out: % INHIBITION (5 ug/mL), 0.5% HSA

| inhibition at 5 µg/mL [1] [%] | inhibition at 5 µg/mL [2] [%] | SMILES |
| --- | --- | --- |
| 39.2 | 28 | CC(C)C1N=C2CN(C3CCCCCCC3)C(=O)[C@H](C(C)C)N2C1(O)C(F)(F)F (stereo partly drawn) |
| 86 | 84.5 | CC(C)C1N=C2CN(C3Cc4ccccc4C3)C(=O)[C@H](C(C)C)N2C1(O)C(F)(F)F (stereo partly drawn) |
| 47.5 | 58.6 | COc1ccc(CCN2CC3=NC(C(C)C)C(O)(C(F)(F)F)N3[C@@H](C(C)C)C2=O)cc1OC (stereo partly drawn) |
